The values below come from patent publication US7737142B2, “(Thio) carbamoyl-cyclohexane derivatives as D3/D2 receptor antagonists” (Richter Gedeon Vegyeszeti Gyar Rt., priority 2003, dated 2010).

pIC50: −log10 of the molar value.

In data set [1] the target is T1, rat recombinant D3 receptors (expressed in Sf9 cells) (Rattus norvegicus, UniProt P19020).
T1 construct: purchased Packard BioScience, BioSignal Packard Inc. 6110139; host or cells: Sf9 cells
The data set can be described thus: D3 receptor binding ([3H]-spiperone). As to conditions: [3H]-spiperone 0.85 nM, read-out: D3 IC-50.

For data set [2], the target named is Alpha-1 receptor (rat brain cortical membrane preparation). The data set is described as follows: Alpha-1 receptor binding ([3H]-prasosin). As to conditions: rat brain cortical membranes, [3H]-prasosin 0.5 nM; read-out: Alfa-1 IC-50.
Method: The non-specific binding was determined in the presence of 10 μM phentolamine.
In data set [3] the target is T2, D2 receptor (rat brain striatal membrane preparation) (Rattus norvegicus, UniProt P61169).
T2 construct: on rat brain striatal membrane preparation; from tissue; host or cells: rat brain striatum membranes
The data set is described as follows: D2 receptor binding ([3H]-spiperone). As to conditions: rat brain striatal membranes, [3H]-spiperone 0.6 nM; read-out: D2 IC-50.
Method: The non-specific binding was determined in the presence of 1 μM (+)-butaclamol.

T2 sequence (P61169 whole entry): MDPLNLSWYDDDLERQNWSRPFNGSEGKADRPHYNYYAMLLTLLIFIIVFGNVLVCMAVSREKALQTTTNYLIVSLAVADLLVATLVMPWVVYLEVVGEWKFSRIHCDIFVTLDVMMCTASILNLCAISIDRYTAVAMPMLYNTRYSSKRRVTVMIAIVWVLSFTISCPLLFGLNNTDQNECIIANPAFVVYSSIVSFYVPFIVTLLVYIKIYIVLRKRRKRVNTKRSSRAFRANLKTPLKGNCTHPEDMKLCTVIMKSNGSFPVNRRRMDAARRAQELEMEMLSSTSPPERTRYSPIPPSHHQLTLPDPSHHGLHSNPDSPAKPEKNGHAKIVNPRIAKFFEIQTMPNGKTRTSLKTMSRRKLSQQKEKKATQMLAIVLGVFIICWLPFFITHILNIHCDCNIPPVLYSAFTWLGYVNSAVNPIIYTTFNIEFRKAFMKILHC
T1 sequence (P19020 whole entry): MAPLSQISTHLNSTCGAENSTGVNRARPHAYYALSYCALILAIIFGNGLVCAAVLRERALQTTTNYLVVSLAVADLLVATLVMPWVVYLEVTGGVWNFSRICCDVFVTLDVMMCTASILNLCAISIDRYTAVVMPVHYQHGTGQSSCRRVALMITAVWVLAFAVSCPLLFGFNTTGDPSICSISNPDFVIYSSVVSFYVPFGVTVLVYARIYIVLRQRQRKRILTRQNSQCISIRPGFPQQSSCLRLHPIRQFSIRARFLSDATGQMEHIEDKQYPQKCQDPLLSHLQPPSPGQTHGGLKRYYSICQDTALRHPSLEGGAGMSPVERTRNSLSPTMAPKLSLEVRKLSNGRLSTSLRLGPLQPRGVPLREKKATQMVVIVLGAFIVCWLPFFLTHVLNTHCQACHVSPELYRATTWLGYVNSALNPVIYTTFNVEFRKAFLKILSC

The melting point is the temperature, or range, at which the solid turns liquid. As to `O=C(N[C@H]1CC[C@H](CCN2CCN(c3cccc(Cl)c3Cl)CC2)CC1)N1CCCC1` [Compound 8, trans-N-{4-[2-[4-(2,3-dichlorophenyl)-piperazin-1-yl]-ethyl]-cyclohexyl}-pyrrolidine-1-carboxamide], the melting point was in the range of 201 to 203 °C. For the same molecule, in data set [1], the pIC50 is above 9.00. For the same molecule, the pIC50 in data set [2] is below 6.70. The pIC50 in data set [3] is 7.30 to 8.00.

In turn, `CN(C)C(=O)N[C@H]1CC[C@H](CCN2CCCN(c3cccc(Cl)c3Cl)CC2)CC1` [Compound 7, trans-1-{4-[2-[4-(2,3-dichlorophenyl)-hexahydro[1,4]diazepin-1-yl]-ethyl]-cyclohexyl}-3,3-dimethyl-urea] registered a melting point of 168 to 172 °C. Moreover, in data set [1], the pIC50 is 8.00 to 9.00. Moreover, in data set [2], the pIC50 is below 6.70. Moreover, in data set [3], the pIC50 is 7.30 to 8.00.
